Assay results taken from US20240382548A1, “COMPOSITIONS COMPRISING CASTANEA SATIVA EXTRACTS FOR TREATMENT OF HELICOBACTER PYLORI INFECTIONS” (priority 2021, published 2024).
Values after ≈ are worked out from the molar mass of the structure shown. Read-outs that look alike come from different tables or passages of the source.

What was measured:
[1] = system: nuclear transcription factor NF-κB; experiment: NF-κB-guided transcription (luciferase reporter) induced by H. pylori; format: cell-based; details: 50 μM, positive control
Description: The nuclear transcription factor NF-κB is involved in inflammation of the gastric epithelium induced by H. pylori and is also responsible for increased expression of pro-inflammatory genes, including IL-8, in the gastric cells. […] The cells were 20 subjected to transient transfection with a plasmid containing three KB responsive sites upstream of the gene encoding for luciferase; the cells then underwent treatment with the pathogen, and the transcription was measured after 6 hours by luminescence.

[2] = system: IL-8 release induced by H. pylori in GES-1 cells; experiment: IL-8 release induced by H. pylori in GES-1 cells; format: cell-based, human; details: for effect on IL-8 release induced by the pathogen: 10-50 μM
Description: At the same concentrations, the extract inhibits IL-8 release induced by H. pylori in GES-1 cells; the pathogen induces IL-8 release in gastric epithelial cells, of about a 20-fold increase compared with the unstimulated control. […] EGCG 50 μM (50% inhibition) was used as a positive control.

[3] = system: H. pylori; experiment: Antibacterial activity (MIC) on a strain of H. pylori; format: cell-based; details: Helicobacter pylori; for MIC: read-out: MIC on H. pylori
Description: The antibacterial activity of the chestnut extract was evaluated by measuring the MIC (Minimum Inhibitory Concentration) on a strain of H. pylori.

[4] = system: non-tumoral human gastric epithelial cells GES-1; format: cell-based; details: 10-50 μM concentration range
Description: Firstly, the extract was analysed to establish its possible cytotoxicity (using the MTT colorimetric assay) towards non-tumoral human gastric epithelial cells GES-1 in the presence of H. pylori (ratio 1:50).

O=C(O[C@@H]1Cc2c(O)cc(O)cc2O[C@@H]1c1cc(O)c(O)c(O)c1)c1cc(O)c(O)c(O)c1 [EGCG, epigallocatechin gallate, reference compound]
inhibition of NF-κB-guided transcription [1]: 63%
inhibition of IL-8 release ([2]; 50 μM, positive control): 50%

CN(C)[C@@H]1C(O)=C(C(N)=O)C(=O)[C@@]2(O)C(O)=C3C(=O)c4c(O)cccc4[C@@](C)(O)[C@H]3C[C@@H]12 [Tetracycline, reference compound]
inhibition at 0.25 µg/mL ([3]; 0.25 μg/mL, positive control, read-out: inhibition of the growth of the pathogen): 80%

O=C1OC[C@H]2OC(=O)c3cc(O)c(O)c(O)c3-c3c(O)c(O)c(O)c4c3C(=O)O[C@H]([C@H]3OC(=O)c5c-4c(O)c(O)c(O)c5[C@H]3O)[C@@H]2OC(=O)c2cc(O)c(O)c(O)c2-c2c1cc(O)c(O)c2O [castalagin]
effect on IL-8 release induced by the pathogen [2]: concentration-dependent inhibition
MIC ([3]; same experimental conditions as the extract): 25 µM (≈ 23.4 µg/mL)
toxicity [4]: did not exhibit any toxicity

O=C1OCC2OC(=O)c3cc(O)c(O)c(O)c3-c3c(O)c(O)c(O)c4c3C(=O)OC(C2OC(=O)c2cc(O)c(O)c(O)c2-c2c1cc(O)c(O)c2O)C1OC(=O)c2c-4c(O)c(O)c(O)c2C1O (stereo not drawn) [vescalagin]
effect on IL-8 release induced by the pathogen [2]: concentration-dependent inhibition
MIC [3]: 25 µM (≈ 23.4 µg/mL)
toxicity [4]: did not exhibit any toxicity
